For 73 molecules, cytotoxicity results are on record in ChEMBL document CHEMBL3507680, “University of Dundee, Gates Library screen for HepG2 cell viability”.

The nature of the data set: Human HepG2 cell viability assay in 384 well format. The class given is toxicity, cell-based. Further details: dose 125 nL, time 70.5 hour; cytotoxicity at 70.5 h: concentration not given beside the values. The following applies: HepG2 cells, read-out: Inhibition.
In the case of `O=C(CCCOCc1ccccc1)N1CCCC(n2cncn2)C1` (stereo not drawn), the cytotoxicity at 70.5 h was -1.64%.
On to `Fc1ccccc1OCCN1CCCCC1Cn1cncn1` (stereo not drawn), for which the cytotoxicity at 70.5 h worked out at 2.55%.
The value for `CN(Cc1ccccn1)C1CCCN(c2cccnn2)C1` (stereo not drawn) was 3.01%; that for `CCc1nccn1C1CCCN(C(=O)C2=NN(C)C(=O)CC2)C1` (stereo not drawn) was -8.58%.
Under `CC(C)Cc1noc(CN2CCCC2c2noc(C3CC3)n2)n1` (stereo not drawn) stands -10.4%; under `Cc1nc(C)n(C2CCCN(C(=O)c3csc(CC(C)C)n3)C2)n1` (stereo not drawn), -13.9%.
Under `COc1cccc(COCC(=O)N2CCCC(c3ccn[nH]3)C2)c1` (stereo not drawn) stands 20.5%; under `CCCc1noc(CN2CCCC2c2noc(C3CC3)n2)n1` (stereo not drawn), -4.28%; under `COc1cc(C(=O)N2CCCC(CNS(C)(=O)=O)C2)ccc1C` (stereo not drawn), 15.8%.
`CS(=O)(=O)NCC1CCCN(C(=O)c2ccc(F)c(F)c2)C1` (stereo not drawn): the cytotoxicity at 70.5 h is -1.98%.
The value for `Cc1ccc(C(=O)N2CCCC(CNS(C)(=O)=O)C2)o1` (stereo not drawn) was -7.3%.
`CCc1ccc(C(=O)N2CCCC(CNS(C)(=O)=O)C2)o1` (stereo not drawn): the cytotoxicity at 70.5 h is -10.7%.
Take `CC(Cn1cccn1)NC(=O)N1CCN(Cc2ccncc2)CC1` (stereo not drawn): the cytotoxicity at 70.5 h was -5.78%.
The value for `CCOc1ncccc1CNC(=O)c1cc(C)on1` was -8.59%; that for `CC(=O)NCCNC(=O)c1cnc(-c2ccc(C)cc2C)s1` was -6.99%; that for `COCCc1noc(CN2CCN(CC(O)c3ccccc3)CC2)n1` (stereo not drawn) was -6.23%.
The value for `CCCc1nc(CN2CCN(CC(O)c3ccccc3)CC2)no1` (stereo not drawn) was -0.214%; that for `Cn1cc(C(=O)NC2CCN(C(=O)NCC3CCSCC3)CC2)cn1` was -3.27%.
Under `O=C(CCc1ccc(Br)cc1F)NS(=O)(=O)c1ccc2c(c1)OCCO2` stands -3.13%.
As to `Cc1cc(CN(Cc2cccs2)CC2CCCO2)no1` (stereo not drawn), the cytotoxicity at 70.5 h is -0.996%.
Under `CCCc1n[nH]c(C2CN(CCCOc3ccccc3)CCO2)n1` (stereo not drawn) stands -6.69%; under `COCc1nc(C(=O)N2CCCC2c2c(C)nn(C)c2C)cs1` (stereo not drawn), -6.67%.
Under `Cc1cc(C)n(CC2CCCN2C(=O)c2ccc3c(c2)OCO3)n1` (stereo not drawn) stands 6.92%.
The value for `COc1ccc(OCCNCCn2cccn2)cc1` was 3.51%; that for `O=C(Cc1csc(-c2ccco2)n1)N1CCN(CCO)CC1` was 5.35%; that for `Cc1cc(C)n(C2CCCN(C(=O)CCNS(C)(=O)=O)C2)n1` (stereo not drawn) was 14.9%.
Consider `Cc1ccc(NC2CCN(C(=O)COc3cccnc3)CC2)nn1`, for which the cytotoxicity at 70.5 h stood at 22%.
The value for `CCc1nc(CN2CCN(C(=O)CCc3ccccc3)CC2)cs1` was 3%; that for `c1cc(CNCC2CNc3ccnn3C2)cc(N2CCCCC2)n1` (stereo not drawn) was 25.3%; that for `c1ccc(Oc2cc(CNCC3CNc4ccnn4C3)ccn2)cc1` (stereo not drawn) was -2.96%.
The value for `CCOc1cc(/C=C/c2ncc(C(=O)O)s2)cc(Cl)c1OC` was 9.41%.
The value for `CCOc1ncccc1C(=O)NCCN(CC)C1CC1` was 0.543%; that for `O=C(NCc1cccc2cccnc12)N1CCC(n2cncn2)CC1` was -1.7%; that for `CCc1nccn1C1CCCN(C(=O)CCCNc2ncccn2)C1` (stereo not drawn) was -1.35%.
With `O=C(c1ccn[nH]1)N1CCCC(n2cncn2)C1` (stereo not drawn), the cytotoxicity at 70.5 h amounted to 5.61%.
The value for `COCCCNC(=O)CN1CCCC1c1c(C)nn(C)c1Cl` (stereo not drawn) was 27.1%; that for `O=C(c1cnc(-c2ccco2)s1)N1CCCC1Cn1cccn1` (stereo not drawn) was 1.15%; that for `CC1CCN(S(=O)(=O)NCCCn2cncn2)CC1` was -0.69%.
Take `Cc1nc(C)n(CC2CCCN(CCCOc3ccccc3)C2)n1` (stereo not drawn): the cytotoxicity at 70.5 h is -0.0538%.
The value for `Cn1cc(C(=O)CC2CCCN2C(=O)c2cncc3ccccc23)cn1` (stereo not drawn) was 3.04%.
The value for `Cc1nc(-c2ccco2)ccc1C(=O)N1CCCC1Cn1cccn1` (stereo not drawn) was 7.82%; that for `COc1ccc(CCN2CCCC(Cn3nc(C)nc3C)C2)cc1` (stereo not drawn) was -2.31%.
Take `CC(O)CN1CCN(C(=O)c2ccc(Cn3cccc3)cc2)CC1` (stereo not drawn): the cytotoxicity at 70.5 h was -2.78%.
Under `CCn1cnnc1CNC(=O)N(C)Cc1ccc2c(c1)OCCO2` stands 6.83%; under `Cc1nc(C)n(CC2CCCN(Cc3nc(C)c(C)o3)C2)n1` (stereo not drawn), 13.2%; under `CCC1CN(CCC(=O)N(C)C)CCN1CCOC` (stereo not drawn), -8.66%.
Under `CCC1CN(CC(=O)N2CCC2)CCN1CCOC` (stereo not drawn) stands -2.85%; under `Cc1nc(C)n(CC2CCCN(c3ncnc4ccsc34)C2)n1` (stereo not drawn), 26.2%; under `CCn1cnnc1CNC(=O)CCC(=O)c1ccc2c(c1)OCCO2`, -9.39%.
Regarding `Cc1ccc(C(=O)N2CCCC(NC(=O)C(C)C)C2)c(O)c1` (stereo not drawn), the cytotoxicity at 70.5 h was -3.17%.
The value for `Cc1ccc(C(=O)N2CCCC(C(=O)N3CCCCC3)C2)c(O)c1` (stereo not drawn) was 13.3%.
Under `CC(=O)NC1CCCN(C(=O)c2ccc(Br)cc2O)C1` (stereo not drawn) stands -8.57%; under `COCCN(CCc1ccccc1)Cc1nc2c(cnn2C)c(=O)[nH]1`, -3.4%.
The value for `CCN(CCc1ccccc1)Cn1nc(C)c2c(C)onc2c1=O` was -1.87%; that for `O=C(c1cnc(-c2cccs2)s1)N1CCCC(n2cccn2)C1` (stereo not drawn) was -4.26%; that for `CCN1CCN(C(=O)c2cnn(-c3ccccc3Cl)c2)CC1` was -8.2%.
Consider `Cc1cccc(-c2[nH]ncc2CNCC2CCN(CC(C)O)CC2)c1` (stereo not drawn), for which the cytotoxicity at 70.5 h was -4.28%.
The value for `Cc1nc(CNC(=O)NCCc2ccc(N(C)C)cc2)cs1` was -0.758%; that for `c1csc(-c2nc(CN3CCOC(Cn4cccn4)C3)co2)c1` (stereo not drawn) was -8.17%; that for `O=C(c1ccccc1N1CCOCC1)N1CCCC(n2cccn2)C1` (stereo not drawn) was 1.3%.
For the molecule `Cc1cnn(CCC(=O)N2CCC(Nc3cccnn3)CC2)c1`, the cytotoxicity at 70.5 h was determined as 18.3%.
The value for `CCc1nccn1C1CCCN(C(=O)c2cn3cccnc3n2)C1` (stereo not drawn) was -11.4%; that for `Cc1nc(CN2CCOC(CNc3cccnn3)C2)cs1` (stereo not drawn) was 2.31%; that for `CCc1ccc(C(=O)O)cc1S(=O)(=O)Nc1ccc(F)c(C#N)c1` was 6.85%.
Under `CCOc1cccc2c1OCC(C(=O)NS(=O)(=O)c1ccc(C)s1)=C2` stands -4.35%.
Consider `CC(C)c1nccn1C1CCCN(C(=O)c2cccc3c2OCO3)C1` (stereo not drawn), for which the cytotoxicity at 70.5 h was determined as 8.22%.
In the case of `O=C(Cc1ccc2c(c1)OCCO2)NCCc1nnc2n1CCC2`, the cytotoxicity at 70.5 h is 12.2%.
The value for `O=C(NCCN1CCCCCC1=O)c1ccn(-c2ccc(F)cc2)n1` was -6.58%; that for `CCOc1ccc(S(=O)(=O)NC(=O)CCC2CCCO2)cc1` (stereo not drawn) was -10.5%.
As for `Cc1csc(N2CCN(C(=O)CCNc3ncccn3)CC2)n1`, the cytotoxicity at 70.5 h was -11.3%.
On to `Cc1csc(N2CCN(C(=O)Cc3ccc(C)s3)CC2)n1`, for which the cytotoxicity at 70.5 h was 3.83%.
As for `Cc1nc(-c2ccccc2)n(CC(=O)NCC(C)C)n1`, the cytotoxicity at 70.5 h was -3.55%.
The value for `Cc1cccc(CNC2CCCc3c2cnn3Cc2ccccc2)c1` (stereo not drawn) was -7.85%.
